The assay relates to c-Myc. The experiment in a line: BRD4 human c-Myc ELISA assay in 22RV-1 cells. The conditions noted are these: 22Rv1, 18 hours. In kind it is cell-based. As to the method: 6. BRD4 Human c-Myc ELISA Assay Protocol
22RV-1 cells were seeded at 30,000 cells/well at a volume of 75 μL/well in RPMI with 10% FBS media in 96-well plates and grown overnight at 37° C. Cells were dosed with compounds at 4× concentration diluted in 0.4% DMSO; compounds were serially diluted 1:3 for 8-point dose curve. Twenty-five (25) ul of the compounds was added to cells for a final concentration starting at 300 nM-0.3 nM or 1 uM-1 nM in 0.1% DMSO and incubated for 18 hours. Media was aspirated, cells were washed 1× with PBS and aspirated. Cells were lysed in 50 ul RIPA buffer (50 mM Tris pH8, 150 mM NaCl, 1% Tx-100, 0.1% SDS, 0.5% sodium deoxycholate) supplemented with protease and phosphatase inhibitors. Plates were incubated on ice for 15 minutes then centrifuged at 4° C. for 10 minutes at 4000 rpm. Fifty (50) ul of cleared lysate from a 96-well assay plate was added into 96-well c-myc ELISA plate (Novex, Life Technologies Catalog #KH02041). c-myc standard was reconstituted with standard diluent buffer; standard curve range of 333 pg/ml-0 pg/ml was prepared, diluted 1:2 for 8-point dose curve. The rest of the assay was performed following the protocol from the c-myc ELISA kit. Data was analyzed and plotted using GraphPad Prism software.

`Cc1sc2c(c1C)C(c1ccc(Cl)cc1)=NC(CC(=O)NCCCOCCCOc1ccc3ncc(-n4ccc(=O)[nH]c4=O)cc3c1)c1nnc(C)n1-2` (stereo not shown) [PROTAC-1, 2-(4-(4-chlorophenyl)-2,3,9-trimethyl-6H-thieno[3,2-f] [1,2,4]triazolo[4,3-a][1,4]diazepin-6-yl)-N-(3-(3-((3-(2,4-dioxo-3,4-dihydropyrimidin-1(2H)-yl)quinolin-6-yl)oxy)propoxy)propyl)acetamide] returned a concentration for half-maximal inhibition (IC50) not below 100 nM.

Source of the values: patent US12441708B2, “Cereblon ligands and bifunctional compounds comprising the same” (Arvinas Operations, Inc., priority 2017, dated 2025).
